Laboratory results taken from patent publication US20070123467A1, “Amniotic-derived peptide and uses thereof” (priority 2003, published 2007).
Residues, ends and D or L forms follow the SMILES beside them.

Assays:
[1] = system: LPS-induced lethality in mice; test: Potency of LAP in counteracting lethality induced by a DL100 dose of LPS (Example 3); assay type: in vivo, CD1 mice; conditions: for Lethality 24 h / Lethality 24 h (dead/total) / Lethality 48 h / Lethality 48 h (dead/total) / Lethality 72 h / Lethality 72 h (dead/total): LPS 1 mg/mouse
Source text: Synthetic peptide or Lajor Active Peptide (LAP) was synthesized chemically to produce the amino acid sequence of the previously-identified bioactive peptide contained in Fractions 2, 3 and 4 of the low molecular weight components of PLB. […] Mice treated with Fraction 4 prepared from PLB were used as positive controls.
Six weeks old female CD1 mice (Charles River, Calco, Italy) were used. The mice were allowed to adapt one week to their environment before commencing the study. They were kept under standard laboratory condition with ad libitum food and water.
The mice were injected i.p. with 1 mg of lipopolysaccharide (LPS) (Sigma Chimica, Milan, Italy). Mortality was recorded every 24 hours up to 72 hours after challenge with LPS.

LPS-induced lethality = test: Time and dose effects of LAP on LPS-induced lethality (Example 14); assay type: in vivo, CD1 mice; conditions: 1 mg LPS i.p.
Protocol: To induce lethal endotoxemia, the mice were injected i.p. with 1 mg lipopolysaccharide (LPS, Cod. L6011, lot 112K4063, Sigma Chimica, Milan, Italy). LAP was provided by Lajor BioTech (Pittsburgh, Pa. USA), dissolved volume/volume in trifluoroacetic acid 0.1% in water and Na2HPO4 and injected ip in a final volume of 100 mcl.
Statistical analysis was performed by chi-square for lethality and one way ANOVA for cytokine measurements. P values lower than 0.05 were taken as significant.

TNF-α = test: LPS-induced blood levels of TNF-α, ELISA (Example 14); assay type: in vivo, mouse; conditions: 10 mcg LAP
Protocol: (§1) Plasma samples were obtained by blood obtained from individual mice at sacrifice. TNF-α, IFN-γ and IL-10 were measured by mouse specific solid-phase ELISA according to the manufacturer's (Celbio Euroclone, Milan, Italy) instructions. Intra and inter-assays coefficient of variations were within 10%. The limit of sensitivity of the assays were 7 pg/ml. For statistical analysis, samples with undetectable amounts of cytokine were assigned 7 pg as theoretical value.
(§2) Injection of LPS is associated with a marked increase in the blood levels of both type 1 (IFN-γ, TNF-α, IL-1) and type 2 (IL-10) cytokines that occurs with different kinetic after the inoculation of the toxin. To evaluate the effects of LAP treatment on LPS-induced cytokine increase in the circulation of the mice, experiments were carried out where mice treated with 10 mcg LAP or its vehicle, were sacrificed just before injection of a sublethal dose of LPS one hour after treatment with either LAP or PBS (T0) and then 2 (T2) and 8 (T8) hours after LPS.

IFN-γ = test: LPS-induced blood levels of IFN-γ, ELISA (Example 14); assay type: in vivo, mouse; conditions: 10 mcg LAP; 2 and 8 hours after LPS
Protocol: as §1, §2

IL-10 = test: Blood levels of IL-10, ELISA (Example 14); assay type: in vivo, mouse
Protocol: as §1, §2

Con A-induced hepatitis = Con A-induced hepatitis in mice, plasma ALAT, LAP prophylaxis (Example 15); assay type: in vivo, CD1 male mice
Protocol: Eight weeks old outbred CD1 male mice (Charles River, Calco, Italy) were kept under standard laboratory conditions (non-specific pathogen free) at 24° C. with free access to food and water. The food was withdrawn 16 hours prior to the experiments.
Con A (Sigma Chemical, St. Louis, Mo.), dissolved in sterile phosphate-buffered saline (PBS) was injected into the tail veins. The groups were treated with either LAP (dissolved volume/volume in trifluoroacetic acid 0.1% in water and Na2HPO4 and then further diluted in water for injection), or its vehicle, 1 hour prior to and one hour after Con A. An additional group of control mice was injected with Con A and received no treatment. Finally, other two groups of mice were also included for comparison that were either injected i.v. with PBS or received no treatment (Table 8). LAP, its vehicle, PBS and Con A were all injected in a final volume of 100 microliter (mcl). The animals were sacrificed for blood collection 8 hours after Con A injection, when biochemical and signs (transaminases increase) of hepatic injury are pronounced (15-1 to 15-9). Mice dead before sacrifice (Table 8) were not included.
Plasma alanine aminotransferase (ALAT) activity was determined by a standard photometric assay using a bichromatic analyzer. Results are expressed in U/L
Results are shown as mean values ±SD. Statistical analysis was performed by one way ANOVA. The effect of LAP was considered to be statistically significant when the difference of ALAT blood levels versus controls yields a p value at least lower than 0.05.

CD4+CD25− T cells = test: T cell proliferation assay, thymidine incorporation (Example 21); assay type: cell-based, Balb/c mouse
Protocol: T cell proliferation assays were set up as follows. Antigen presenting cells (APCs) obtained as single cell suspension from Balb/c mouse spleens were pulsed with fecal extract (from Balb/C mice) overnight in 24 well-plate (1×10^6 cells/ml with 400 μg/ml of extract). Responding cells were obtained from Balb/c mouse spleens as CD4^+CD25^− T cells. CD4+ T cells were selected by DYNABEADS, and CD4^+CD25^− T cells were then selected using labelled anti-CD25 antibody (e.g. PE-labelled anti-CD25). Responding T cells were co-cultured with APC in 96 round bottom well-plate (3.3×10^4 responding cell/1×10^5 APC in 200 μl) in the presence or absence of LAP for 5 days. Immune cell proliferation was then determined by standard thymidine incorporation assays.

[2] = system: auto-immune diabetes in the NOD mouse; conditions: in vivo
Source text: (§3) Female NOD mice (Charles River, Calco, Italy) were maintained under standard laboratory conditions (non-specific pathogen free) with free access to food and water. During the study period of diabetes prevention the mice were screened for diabetes development twice a week by means of glycosuria followed, when positive, by measurement of glycaemia. Mice are diagnosed as diabetic when fasting glycaemia is above 12 mmol/l for 2 consecutive days.
(§4) Euglycaemic female NOD mice were randomly allocated into 4 different groups receiving either LAP or vehicle starting at the 4th or at the 12th week of age. Because insulitis is virtually absent in 4-week-old NOD mice and is actively ongoing at 12 weeks, this approach allowed us to investigate the effects of LAP-treatment in both the early and late diabetogenic stages of the NOD mouse. The readout of the early prohylactic treatment was to evaluate the effect of LAP on development of insulitis, while the readout of the late prophylactic treatment was to evaluate the effect of LAP on the incidence of clinically overt diabetes.
(§5) For the early prophylactic treatment 4-week-old NOD mice were treated with either 10 mcg LAP (dissolved and diluted [100 mcl final volume] as described in Example 14 and 15) or 100 mcl vehicle, daily, six times weekly until the age of 14 weeks. At this point, the euglycaemic mice were sacrificed and their pancreatic specimens collected for histological examination of insulitis.
(§6) For the late prophylactic treatment, 12-week-old NOD mice were randomly divided into two experimental groups, one treated with LAP and the other with vehicle, under the same experimental regime described for the early prophylactic treatment.
(§7) Histological examination of the pancreatic islets was performed in a blind fashion by two pathologists unaware of the status and/or the treatment of the animals, as described previously (See 16-3 to 16-5). The degree of mononuclear cell infiltration is graded as follows: 0, no infiltrate; 1, peri-ductular infiltrate; 2, peri-islet infiltrate; 3, intra-islet infiltrate; 4, intra-islet infiltrate associated with β-cell destruction. At least 12 islets are counted for each mouse. The mean score for each pancreas is calculated by dividing the total score by the numbers of islets.

[3] = system: auto-immune diabetes in the NOD mouse; test: LAP in development of insulitis and auto-immune diabetes in NOD mouse (Example 16)
Source text: as §3, §4, §5, §6, §7

CC[C@H](C)[C@H](NC(=O)[C@H](CCC(=O)O)NC(=O)[C@@H](NC(=O)[C@H](C)NC(=O)[C@H](CO)NC(=O)[C@@H](NC(=O)[C@@H](N)CC(N)=O)C(C)C)C(C)C)C(=O)N[C@@H](C)C(=O)O [LAP, NH2-NVSAVEIA-COOH] (H-NVSAVEIA-OH)
Lethality 24 h ([1]; 2.5 mcg at −24, −1 h): 10% | Lethality 24 h (dead/total) ([1]; 2.5 mcg at −24, −1 h): (2/20) | Lethality 48 h ([1]; 2.5 mcg at −24, −1 h): 35% | Lethality 48 h (dead/total) ([1]; 2.5 mcg at −24, −1 h): (7/20) | Lethality 72 h ([1]; 2.5 mcg at −24, −1 h): 80% | Lethality 72 h (dead/total) ([1]; 2.5 mcg at −24, −1 h): (16/20) | Lethality 24 h ([1]; 10 mcg at −24, −1 h): 10% | Lethality 24 h (dead/total) ([1]; 10 mcg at −24, −1 h): (2/20) | Lethality 48 h ([1]; 10 mcg at −24, −1 h): 35% | Lethality 48 h (dead/total) ([1]; 10 mcg at −24, −1 h): (7/20) | Lethality 72 h ([1]; 10 mcg at −24, −1 h): 50% | Lethality 72 h (dead/total) ([1]; 10 mcg at −24, −1 h): (10/20) c | kinetic and cumulative rate of lethality (in words) ([1]; different doses of LAP tested): unaffected | cumulative rate of lethality (in words) ([1]; prophylactic treatment with 10 ucg): markedly reduced | Lethality 72 h (LPS-induced lethality; 1 mcg at −24, −1 h): (79%) | Lethality 72 h (dead/total) (LPS-induced lethality; 1 mcg at −24, −1 h): 11/14 | Lethality 72 h (LPS-induced lethality; 10 mcg at +1 h): (71%) | Lethality 72 h (dead/total) (LPS-induced lethality; 10 mcg at +1 h): 10/14 | Lethality 72 h (LPS-induced lethality; 10 mcg at −1, +1 h): (14%) | Lethality 72 h (dead/total) (LPS-induced lethality; 10 mcg at −1, +1 h): 2/14 | Lethality 72 h (LPS-induced lethality; 10 mcg at −24, −1 h): (14%) | Lethality 72 h (dead/total) (LPS-induced lethality; 10 mcg at −24, −1 h): 2/14 | Lethality 72 h (LPS-induced lethality; 20 mcg at −1, +1 h): (100%) | Lethality 72 h (dead/total) (LPS-induced lethality; 20 mcg at −1, +1 h): 14/14 | reduction of TNF-α blood levels vs. controls (TNF-α; 2 hours after sublethal LPS (0.5 mg/mouse), p=0.01): 37.3% | reduction of TNF-α blood levels vs. controls (TNF-α; 8 hours after sublethal LPS (0.5 mg/mouse), p=0.005): 76.5% | LPS-induced blood levels of IFN-γ (in words) (IFN-γ): did not modify | LPS-induced blood levels of IL-10 (in words) (IL-10; 10 mcg LAP, 2 and 8 hours after LPS): did not modify | mice with detectable levels of IL-10 in the blood (IL-10; T0, 1 hour after 10 mcg LAP, before LPS, 0 out of 10 controls): 3 out of 10 | reduction of ALAT vs controls (Con A-induced hepatitis; 8 hours after Con A): 84.7% | ALAT values (Con A-induced hepatitis; LAP 1 hour prior to and one hour after Con A, 8 hours after Con A, mean ± SD): 686 ± 197b U/L | Lethality (dead before sacrifice/total) (Con A-induced hepatitis; LAP 1 hour prior to and one hour after Con A, within 8 hours): 1/15 | CD4+CD25− T cell proliferation in response to antigen-pulsed APCs in the presence of the peptide (CD4+CD25− T cells; 5 days co-culture): inhibited | T cell proliferation in response to APCs pre-treated with the peptide (CD4+CD25− T cells; APCs pre-treated for 24 hours): not affected | tolerability of long-term administration (clinical appearance and behaviours) [2]: apparently well tolerated | NOD mice that developed diabetes during the treatment period ([3]; early prophylaxis, 4 to 14 weeks of age, 2 of 8 vehicle controls): None and none | insulitis score ([3]; early prophylaxis, 10 mcg daily six times weekly from 4 to 14 weeks of age, vehicle 2±0.9): 0.9±0.6 | azotemia and transaminases values vs controls ([3]; mice sacrificed at week 14): no differences
